Results: ChEMBL document CHEMBL1201862, “PubChem BioAssay data set” (2004)
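96-well plates; 48 h exposure; 5 concentrations. Endpoints by linear interpolation between flanking doses. Not reached: highest tested concentration assigned. At the GI50, growth is halved.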 The source made the active and inactive calls. Cut-off read from the data, not from the text of the source: active = GI50 up to about 1.1 µM and inactive = higher.

Columns and labels:
Test in all cases: NCI anticancer screen, dose series, 48 h
M14 = test system: M14
A549 = test system: A549
OVCAR-3 = test system: OVCAR-3
RXF 393 = test system: RXF 393
UO-31 = test system: UO-31
HCC 2998 = test system: HCC 2998
SNB-19 = test system: SNB-19
HOP-62 = test system: HOP-62
HCT-15 = test system: HCT-15
OVCAR-8 = test system: OVCAR-8
SK-OV-3 = test system: SK-OV-3
EKVX = test system: EKVX
RPMI-8226 = test system: RPMI-8226
SF-268 = test system: SF-268
SR = test system: SR
KM12 = test system: KM12
OVCAR-4 = test system: OVCAR-4
BT-549 = test system: BT-549
DU-145 = test system: DU-145
MCF7 = test system: MCF7

Compound | GI50 (M14) | GI50 (A549) | GI50 (OVCAR-3) | GI50 (RXF 393) | GI50 (UO-31) | GI50 (HCC 2998) | GI50 (SNB-19) | GI50 (HOP-62) | GI50 (HCT-15) [µM] | GI50 (OVCAR-8) | GI50 (SK-OV-3) | GI50 (EKVX) | GI50 (RPMI-8226) | GI50 (SF-268) | GI50 (SR) | GI50 (KM12) | GI50 (OVCAR-4) | GI50 (BT-549) | GI50 (DU-145) | GI50 (MCF7)
COC(=O)CCC(=O)C(CC(=O)OC)C(=O)CCC(=O)NCCc1ccccc1 (stereo not given) | > 100 µM (inactive) | > 100 µM (inactive) | > 100 µM (inactive) | > 100 µM (inactive) | > 100 µM (inactive) | > 100 µM (inactive) | > 100 µM (inactive) | > 100 µM (inactive) | > 100 | > 100 µM (inactive) | > 100 µM (inactive) | > 100 µM (inactive) | > 100 µM (inactive) | > 100 µM (inactive) | > 100 µM (inactive) | > 100 µM (inactive) | > 100 µM (inactive) |  |  | 
C(=N\CCCN1CCN(CCC/N=C/c2cccc3ccccc23)CC1)/c1cccc2ccccc12 | 8.99 µM (inactive) | > 100 µM (inactive) | > 100 µM (inactive) | 10.8 µM (inactive) | 48.3 µM (inactive) | > 100 µM (inactive) | 60.7 µM (inactive) | > 100 µM (inactive) | 34.8 | > 100 µM (inactive) | > 100 µM (inactive) | 71.8 µM (inactive) | 36 µM (inactive) | > 100 µM (inactive) | 38 µM (inactive) | > 100 µM (inactive) | > 100 µM (inactive) | 22.8 µM (inactive) |  | 
COc1cc2nc(-c3cccs3)nc(N3CCN(c4ccccc4C(F)(F)F)CC3)c2cc1OC | > 100 µM (inactive) | > 100 µM (inactive) | 21.5 µM (inactive) |  | > 100 µM (inactive) | > 100 µM (inactive) | > 100 µM (inactive) | > 100 µM (inactive) | > 100 | 93.3 µM (inactive) | > 100 µM (inactive) | 53.7 µM (inactive) | 51.3 µM (inactive) | 60.3 µM (inactive) |  | 75.5 µM (inactive) | > 100 µM (inactive) | > 100 µM (inactive) | > 100 µM (inactive) | 46.2 µM (inactive)
COC(=O)CNC(=O)CSc1nnc(COc2ccc(Cl)cc2)n1-c1ccccc1 | 37.3 µM (inactive) | > 100 µM (inactive) | 71.8 µM (inactive) | 23.1 µM (inactive) | 27.4 µM (inactive) | 25.3 µM (inactive) | > 100 µM (inactive) | > 100 µM (inactive) | > 100 | 31 µM (inactive) | > 100 µM (inactive) | > 100 µM (inactive) |  | 22.2 µM (inactive) |  | 56.9 µM (inactive) | > 100 µM (inactive) |  | 16.3 µM (inactive) | 79.6 µM (inactive)
CC1(C)N=C(N)N=C(N)N1c1cccc(C(=O)Nc2ccc(S(=O)(=O)F)cc2)c1 | > 100 µM (inactive) | > 100 µM (inactive) | > 100 µM (inactive) | > 100 µM (inactive) | > 100 µM (inactive) |  | > 100 µM (inactive) | > 100 µM (inactive) | > 100 | > 100 µM (inactive) | > 100 µM (inactive) | > 100 µM (inactive) | > 100 µM (inactive) | > 100 µM (inactive) |  | > 100 µM (inactive) | > 100 µM (inactive) | > 100 µM (inactive) | > 100 µM (inactive) | > 100 µM (inactive)
Cc1cccc(O)c(=O)c1 | 31.8 µM (inactive) | 24.9 µM (inactive) | 11.6 µM (inactive) | > 100 µM (inactive) | 73.3 µM (inactive) | 44.4 µM (inactive) | 92.9 µM (inactive) | 39.2 µM (inactive) | 8.3 | 19.1 µM (inactive) | > 100 µM (inactive) | 23.6 µM (inactive) | 7.6 µM (inactive) | 21.2 µM (inactive) | 15.2 µM (inactive) | 20.3 µM (inactive) | 45.8 µM (inactive) |  |  | 
O=c1c(Sc2c(SCSc3cnc4ccccc4c3Sc3c[nH]c4ccccc4c3=O)cnc3ccccc23)c[nH]c2ccccc12 | > 100 µM (inactive) | > 10 µM (inactive) | > 100 µM (inactive) |  | > 100 µM (inactive) | > 100 µM (inactive) | 46.6 µM (inactive) | 94.2 µM (inactive) | 96.8 | > 100 µM (inactive) |  | > 100 µM (inactive) | 14.5 µM (inactive) | 92.3 µM (inactive) | 0.877 µM (active) | > 100 µM (inactive) | 96.6 µM (inactive) | > 100 µM (inactive) | > 100 µM (inactive) | 
CC(C)(C)OC(=O)CC(NC(=O)OC(C)(C)C)C(=O)Oc1ccc([N+](=O)[O-])cc1 (stereo not given) | > 100 µM (inactive) | > 100 µM (inactive) | > 100 µM (inactive) | > 100 µM (inactive) | > 100 µM (inactive) |  | > 100 µM (inactive) | > 100 µM (inactive) | > 100 | > 100 µM (inactive) | 29.9 µM (inactive) | > 100 µM (inactive) | > 100 µM (inactive) | 3.2 µM (inactive) |  | > 100 µM (inactive) | > 100 µM (inactive) | > 100 µM (inactive) | > 100 µM (inactive) | > 100 µM (inactive)
c1ccc(C2=C(c3ccccc3)P(c3ccccc3)C2)cc1 (stereo not given) | > 100 µM (inactive) | 43.4 µM (inactive) | 78.7 µM (inactive) | > 100 µM (inactive) |  | > 100 µM (inactive) |  | > 100 µM (inactive) | > 100 | 89.7 µM (inactive) | > 100 µM (inactive) |  |  | > 100 µM (inactive) | 22.8 µM (inactive) | 49.7 µM (inactive) | > 100 µM (inactive) |  | > 100 µM (inactive) | > 100 µM (inactive)
O=C1C(Cl)C2(CC(/C=C/c3ccccc3O)=NN2c2cccc(S(=O)(=O)O)c2)N1c1nc2ccccc2s1 (stereo not given) | 18.3 µM (inactive) | 23.7 µM (inactive) |  | 37.6 µM (inactive) | 13.1 µM (inactive) | 14.5 µM (inactive) | 30.8 µM (inactive) |  | 18.2 | 24.3 µM (inactive) |  | 18.6 µM (inactive) | 12.1 µM (inactive) | 16 µM (inactive) | 15.3 µM (inactive) | 14.8 µM (inactive) | 13.4 µM (inactive) | 18.1 µM (inactive) |  | 15.4 µM (inactive)
CC(C)n1c(=O)[nH]n(-c2ccccc2)c1=O | > 100 µM (inactive) | > 100 µM (inactive) | > 100 µM (inactive) | > 100 µM (inactive) | > 100 µM (inactive) |  | > 100 µM (inactive) | > 100 µM (inactive) | > 100 | > 100 µM (inactive) | > 100 µM (inactive) | > 100 µM (inactive) | > 100 µM (inactive) | > 100 µM (inactive) | > 100 µM (inactive) | > 100 µM (inactive) | > 100 µM (inactive) |  | > 100 µM (inactive) | > 100 µM (inactive)
CC(=O)Nc1ccccc1NC1CC(C)N(c2ccccc2)N1C(C)=O (stereo not given) | > 10 µM (inactive) | > 10 µM (inactive) |  | > 10 µM (inactive) |  | > 10 µM (inactive) |  | > 10 µM (inactive) | > 10 | > 10 µM (inactive) | > 10 µM (inactive) | > 10 µM (inactive) | > 10 µM (inactive) | > 10 µM (inactive) | > 10 µM (inactive) | > 10 µM (inactive) | > 10 µM (inactive) |  | > 10 µM (inactive) | > 10 µM (inactive)
CCOC(=O)c1ccc(-n2c(SCC)nc3sc(C)c(C)c3c2=O)cc1 | > 100 µM (inactive) | > 100 µM (inactive) | 40.6 µM (inactive) | 94.8 µM (inactive) | > 100 µM (inactive) | > 100 µM (inactive) | > 100 µM (inactive) | > 100 µM (inactive) | > 100 | 68.7 µM (inactive) | > 100 µM (inactive) | > 100 µM (inactive) | > 100 µM (inactive) | > 100 µM (inactive) | > 100 µM (inactive) | > 100 µM (inactive) | 53.8 µM (inactive) |  |  | 
CCCCCCNCCc1c[nH]cn1 | > 100 µM (inactive) | > 100 µM (inactive) | > 100 µM (inactive) | > 100 µM (inactive) | > 100 µM (inactive) | > 100 µM (inactive) | > 100 µM (inactive) | > 100 µM (inactive) | > 100 | > 100 µM (inactive) | > 100 µM (inactive) | > 100 µM (inactive) | > 100 µM (inactive) | > 100 µM (inactive) | > 100 µM (inactive) | > 100 µM (inactive) | > 100 µM (inactive) |  | > 100 µM (inactive) | > 100 µM (inactive)
CN1CC2CC(C1)c1cccc(=O)n1C2 (stereo not given) | > 100 µM (inactive) | > 100 µM (inactive) | > 100 µM (inactive) | > 100 µM (inactive) | > 100 µM (inactive) | 0.253 µM (active) | > 100 µM (inactive) | > 100 µM (inactive) | > 100 | > 100 µM (inactive) | > 100 µM (inactive) | > 100 µM (inactive) |  | > 100 µM (inactive) |  | > 100 µM (inactive) | > 100 µM (inactive) | > 100 µM (inactive) | > 100 µM (inactive) | > 100 µM (inactive)
O=C1CSC(=S)N1 [RHODANINE] | > 100 µM (inactive) | > 100 µM (inactive) | > 100 µM (inactive) |  | > 100 µM (inactive) | > 100 µM (inactive) | > 100 µM (inactive) | > 100 µM (inactive) | > 100 | > 100 µM (inactive) |  | > 100 µM (inactive) | > 100 µM (inactive) | > 100 µM (inactive) | > 100 µM (inactive) | > 100 µM (inactive) |  |  | > 100 µM (inactive) | > 100 µM (inactive)
